Experimental data: patent EP1472347B1, “IMPROVED PROTEIN EXPRESSION IN BACILLUS SUBTILIS” (Danisco US Inc., priority 2002, dated 2003)
No end group written: not given here.

Test system: aprE transcription
Test: β-galactosidase assay of the aprE-lacZ transcriptional fusion with synthetic Phr pentapeptides added to the medium
Type: cell-based, B. subtilis AL
Conditions: for aprE transcription (β-galactosidase activity, relative to wild-type): 10 µM pentapeptide in TY medium at 37°C, 4 hours after transition point between exponential and post-exponential growth, strain grown without Phr peptides (WT) set to 100%
Experimental: Figure 1 provides a bar graph depicting the different effects of Phr pentapeptides on aprE transcription. The transcription of the aprE-IacZ gene fusion in B. subtilis AL grown in TY medium at 37°C in the presence of 10 µM of one of the following pentapeptides (see Table II): PhrA (A), PhrC, (C), PhrE (E), PhrF (F), PhrG (G), PhrI (I) or PhrK (K), or in the absence of pentapeptides (-), was measured 4 hours after the transition point between the exponential and post-exponential growth phases. β-galactosidase activities were determined in Units per OD600 (% of WT; aprE-lacZ transcription level of the strain grown in the absence of Phr peptides [WT] is set to 100%).
Figure 2 provides a graph showing that PhrE stimulates aprE transcription. […] Zero time (T0) indicates the transition point between the exponential and post-exponential growth phases.
Overnight cultures were diluted to an optical density (OD600) of 0.1 in fresh TY medium, supplemented with Phr60 pentapeptide, as appropriate. Samples for OD600 readings and β-galactosidase activity determinations were taken at hourly intervals. The assay and the calculation of β-galactosidase activity (expressed as units per OD600) of the samples was performed as known In the art (See, Miller, Experiments In Molecular Genetics, Cold Spring Harbor Laboratory Press, NY, [1982]).
To analyze whether chromosomally-encoded Rap-Phr systems might be Involved in protease production, B. subtilis AL (bearing an aprE-lacZ transcriptional fusion), was grown in TY medium supplemented with synthetic PhrA, -C, -E, -F, -G, -H, -I, or -K pentapeptides (Table II).
In this Example, experiments conducted to further assess the effects of Rap-Phr systems on the transcription of aprE are described. The RapE-PhrE system was used as a model for two reasons. […] To determine the effect of PhrE on aprE transcription during growth, synthetic PhrE was added at two concentrations (1 and 10 µg/ml) to the medium of B. subtilis AL. […] It was also noted that in the latter case, aprE transcription seemed to be improved during all growth phases.

Row | Substance | aprE transcription (β-galactosidase activity, relative to wild-type) | effect on aprE transcription compared with all Phr pentapeptides tested (Figure 1, 10 µM pentapeptide, post-exponential growth phase) | aprE transcription during growth (time course) (synthetic PhrE added at two concentrations (1 and 10 µg/ml) to the medium of B. subtilis AL, TY medium, 37°C, Figure 2)
1 | QRGMI [PhrF] | ~135 % relative to wild-type |  | 
2 | DRVGA [PhrI] | 100-120 % relative to wild-type |  | 
3 | EKMIG [PhrG] | 100-120 % relative to wild-type |  | 
4 | SRNVT [PhrE] | ~135 % relative to wild-type | strongest positive effect on aprE transcription | improved by the addition of PhrE only during the post-exponential growth phase in a PhrE concentration-dependent manner
5 | ARNQT [PhrA] | 100-120 % relative to wild-type |  | 
6 | ERPVG [PhrK] | 100-120 % relative to wild-type |  | 
7 | ERGMT [PhrC] | ~60 % relative to wild-type |  | 
